In ChEMBL document CHEMBL4813917, “2-((1-Phenyl-1H-1,2,3-triazol-4-yl)methyl)-2-azabicyclo[3.2.1]octan-3-one derivatives: Simplification and modification of aconitine scaffold for the discovery of novel anticancer agents” (Eur J Med Chem, 2021):
Calls of active or inactive are those of the source. No cut-off for these calls is given here.

Key:
[1] = system: LoVo; experiment: Cell cycle arrest in human LoVo cells assessed as decrease of cells in G2/M phase at 20 to 80 nM measured after 24 hrs by PI staining based flow cytometry method; format: functional; conditions: dose 20-80 nM
[2] = system: PANC-1; experiment: Antiproliferative activity against human PANC-1 cells assessed as inhibition of cell proliferation measured after 24 hrs by MTT assay; format: functional, cell-based; conditions: PANC-1, 24 h
[3] = system: OVCAR-3; experiment: Antiproliferative activity against human OVCAR-3 cells assessed as inhibition of cell proliferation measured after 24 hrs by MTT assay; format: functional, cell-based; conditions: OVCAR-3, 24 h
[4] = system: HepG2; experiment: Antiproliferative activity against human HepG2 cells assessed as inhibition of cell proliferation measured after 24 hrs by MTT assay; format: functional, cell-based; conditions: HepG2, 24 h
[5] = system: LoVo; experiment: Induction of apoptosis in human LoVo cells assessed as viable cells at 20 nM measured after 24 hrs by Annexin V/PI staining based flow cytometry method (reference value: 93.5%); format: functional; conditions: read-out: Activity
[6] = system: LoVo; experiment: Induction of apoptosis in human LoVo cells assessed as late apoptotic cells at 20 nM measured after 24 hrs by Annexin V/PI staining based flow cytometry method (reference value: 1.6%); format: functional
[7] = system: LoVo; experiment: Induction of apoptosis in human LoVo cells assessed as early apoptotic cells at 40 nM measured after 24 hrs by Annexin V/PI staining based flow cytometry method (reference value: 1.6%); format: functional
[8] = system: LoVo; experiment: Induction of apoptosis in human LoVo cells assessed as late apoptotic cells at 40 nM measured after 24 hrs by Annexin V/PI staining based flow cytometry method (reference value: 1.6%); format: functional
[9] = system: LoVo; experiment: Induction of apoptosis in human LoVo cells assessed as necrotic cells at 40 nM measured after 24 hrs by Annexin V/PI staining based flow cytometry method (reference value: 1.3%); format: functional
[10] = system: SW-620; experiment: Induction of apoptosis in human SW-620 cells assessed as late apoptotic cells at 20 nM measured after 24 hrs by Annexin V/PI staining based flow cytometry method (reference value: 1.3%); format: functional
[11] = system: SW-620; experiment: Induction of apoptosis in human SW-620 cells assessed as viable cells at 40 nM measured after 24 hrs by Annexin V/PI staining based flow cytometry method (reference value: 94%); format: functional; conditions: read-out: Activity
[12] = system: SW-620; experiment: Induction of apoptosis in human SW-620 cells assessed as late apoptotic cells at 40 nM measured after 24 hrs by Annexin V/PI staining based flow cytometry method (reference value: 1.3%); format: functional
[13] = system: SW-620; experiment: Antitumour activity against human SW-620 cells xenografted in Balb/c mouse assessed as inhibition of tumour growth at 5 mg/kg, ip measured after 21 days; format: functional; conditions: SW-620, ip, 504 h, time 21 day, read-out: TGI
[14] = system: SW-620; experiment: Antitumour activity against human SW-620 cells xenografted in Balb/c mouse assessed as increase in cleaved-caspase 3 expression in tumour at 5 mg/kg, ip measured after 21 days immunochemical staining method; format: functional, organism-based; conditions: time 21.0 day
[15] = system: SW-620; experiment: Antitumour activity against human SW-620 cells xenografted in Balb/c mouse assessed as decrease in Ki67 expression in tumour at 5 mg/kg, ip measured after 21 days immunochemical staining method; format: functional, organism-based; conditions: time 21.0 day

IC50 [2]: 90 nM
IC50 [3]: 30 nM
IC50 [4]: 20 nM
Structure (SMILES): CC1(C)[C@H]2CC[C@]1(C)N(Cc1cn(-c3cccc(Br)c3)nn1)C(=O)C2
Activity [1]: Active
viability at 0.02 µM [5]: 91.9%
Activity [6]: 3.1%
Activity [7]: 3.2%
Activity [8]: 5.4%
Activity [9]: 1.6%
Activity [10]: 8.5%
viability at 0.04 µM [11]: 75.5%
Activity [12]: 15.1%
inhibition in vivo at 5 mg/kg [13]: 81.6%
Activity [14]: Active
Activity [15]: Active
